# Reference: US10273224B2, “Substituted pyrimidine compounds, compositions and medicinal applications thereof” (JUBILANT BIOSYS LIMITED, priority 2013, dated 2019)
# Target: T1, EGFR (L858R & T790M) (Homo sapiens, UniProt P00533, L858R/T790M)
# T1 construct: GST; purchased Proqinase
# Assay: EGFR (L858R & T790M) inhibition assay, HTRF method
# Conditions: biochemical HTRF; EGFR (T790M/L858R) 2.5 nM, ATP 5 μM, 60 min room temperature
# Method: Example 25: Biological Activity: EGFR T790M Assay Protocol
# The objective of the experiment is to find the IC50 for the compounds using HTRF method.
# Reagents for Enzyme Assay:
# 1. Enzyme Assay Buffer: 60 mM HEPES (pH 7.4), 50 mM NaCl, 20 mM MgCl2, 5 mM MnCl2, filter using 0.2 µm pore size, store at 4° C.
# Supplements (add fresh to the enzyme buffer): Make 1M DTT stock, 5% BSA stock and 0.1M Na3OV4 stored at 4° C. Enzyme assay buffer 50 ml, 1 M DTT 100 μl, 5% BSA 500 μl, 0.1M Na3OV4 50 μl.
# 2. GST-hEGFR (L858R), active: EGFR (T790M/L858R), active (Proqinase), 3.6 μM stock; 2.5 nM in final assay.
# 3. Gastrin Precusor-Biotinylated: Gastrin precursor (Tyr87) biotinylated peptide (EEAY*GWM), Cell Signaling Tech 1310, Lot-7, Want final 0.5 μM in assay
# 4. ATP: 10 mM stock in 100 μl Enzyme assay buffer pH 7.4 prepared freshly, want 5 μM in final assay.
# 5. Test compounds: Dissolve powders in 100% DMSO to a final stock concentration of 10 mM (volume in μL to add for 10 mM=mg powder×10^5/MW). Final comp concentration in the assay plate is starting at 10 μM.
# 1. HTRF buffer: 50 mM Tris-HCl, pH-7.5, 100 mM NaCl, 0.1% BSA, 0.05% Tween20, 0.5 mM EDTA, filter using 0.2 µm pore size, store at 4° C.
# Phycolink® Streptavidin-Allophycocyanin (SA-APC) Prozyme, Cat. #PJ25S, Lot #896 085, 2.06 mg/mL, APC concentration is 11.6 μM, streptavidin concentration is 15.5 μM. Want 12 nM final in assay (based on streptavidin concentration).
# 2. Europium-W1024-PT-66 Anti Phospho Tyrosine Antibody: Perkin Elmer (AD0068), monoclonal IgG1 that recognizes phospho tyrosine peptide 100 μg/ml stock. Want 0.1 nM final in assay.
# • 1. Make the compound dilution by TECAN as per the above scheme. • 2. Add 16 μl of diluted compound to the assay plate by using TECAN • 3. Add 10 μl of enzyme mix to each well except mins. • 4. Add 20 μl of substrate and ATP mix into each well of the assay plate manually. • 5. Incubate the plate at room temperature for 60 min with shaking. • 6. Meanwhile prepare the HTRF mix and add 75 μl to the HTRF plate. • 7. When the incubation is over, transfer 10 μl of the reaction mixture to the HTRF assay plate and incubate for 30 min at room temperature with shaking. • 8. Take the reading in Pherastar (ext 337 nm, em 665 & 620 nm). • 9. Analyze the results using Graphpad prism after calculation the z factor, signal window and % inhibition to get the IC50.
# Compounds having IC50<10 nM are designated as “A”; 10-100 nM are designated as “B”; and >100 nM as “C”.
# T1 sequence (P00533 25-1210 T790M/L858R): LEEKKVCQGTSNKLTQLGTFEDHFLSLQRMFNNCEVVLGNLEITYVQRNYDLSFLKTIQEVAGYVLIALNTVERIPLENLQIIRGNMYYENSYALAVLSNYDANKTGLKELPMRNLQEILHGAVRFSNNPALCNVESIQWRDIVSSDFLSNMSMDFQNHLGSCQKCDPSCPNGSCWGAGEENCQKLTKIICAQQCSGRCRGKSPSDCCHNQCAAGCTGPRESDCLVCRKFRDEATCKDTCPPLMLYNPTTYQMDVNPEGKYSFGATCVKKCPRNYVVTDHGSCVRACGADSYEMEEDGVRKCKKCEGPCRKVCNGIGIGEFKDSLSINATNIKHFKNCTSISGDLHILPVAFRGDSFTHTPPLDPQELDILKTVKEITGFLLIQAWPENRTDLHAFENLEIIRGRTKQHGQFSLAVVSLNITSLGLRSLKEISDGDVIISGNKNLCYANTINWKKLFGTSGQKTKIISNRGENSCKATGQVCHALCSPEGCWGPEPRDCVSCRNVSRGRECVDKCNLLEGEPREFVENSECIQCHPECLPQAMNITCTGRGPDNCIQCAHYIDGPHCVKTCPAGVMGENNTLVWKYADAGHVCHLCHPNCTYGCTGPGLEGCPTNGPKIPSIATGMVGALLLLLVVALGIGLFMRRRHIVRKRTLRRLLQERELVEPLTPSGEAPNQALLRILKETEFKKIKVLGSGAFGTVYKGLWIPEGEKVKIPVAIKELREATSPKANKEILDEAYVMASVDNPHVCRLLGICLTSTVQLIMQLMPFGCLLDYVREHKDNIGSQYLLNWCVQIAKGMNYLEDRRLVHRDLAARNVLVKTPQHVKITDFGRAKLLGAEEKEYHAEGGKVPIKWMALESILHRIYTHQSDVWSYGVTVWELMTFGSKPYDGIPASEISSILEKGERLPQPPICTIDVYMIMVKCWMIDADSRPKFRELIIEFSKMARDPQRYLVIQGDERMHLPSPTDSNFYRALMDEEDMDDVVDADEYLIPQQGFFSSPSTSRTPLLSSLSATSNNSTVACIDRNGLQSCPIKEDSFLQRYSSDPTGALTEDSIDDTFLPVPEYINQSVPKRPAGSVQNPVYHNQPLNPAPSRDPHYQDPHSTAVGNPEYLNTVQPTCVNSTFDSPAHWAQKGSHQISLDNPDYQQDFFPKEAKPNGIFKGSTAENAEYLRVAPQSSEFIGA
row,IC50,SMILES
1,> 100 nM,"C=CC(=O)N1CCC(Nc2nc(Nc3cnn(C)c3)ncc2Cl)C1 (racemic) [II-7 (Racemic), 1-(3-((5-chloro-2-((1-methyl-1H-pyrazol-4-yl)amino)pyrimidin-4-yl)amino)pyrrolidin-1-yl)prop-2-en-1-one]"
2,> 100 nM,"C=CC(=O)N1CCCC(Nc2nc(Nc3cnn(C)c3)ncc2Cl)C1 (single isomer, unassigned) [II-1 (Enantiomer 1), 1-(3-((5-chloro-2-((1-methyl-1H-pyrazol-4-yl)amino)pyrimidin-4-yl)amino)piperidin-1-yl)prop-2-en-1-one]"
3,> 100 nM,"C=CC(=O)N1CCCC(Nc2nc(Nc3cnn(C)c3)ncc2Cl)C1 (single isomer, unassigned) [II-2 (Enantiomer 2), 1-(3-((5-chloro-2-((1-methyl-1H-pyrazol-4-yl)amino)pyrimidin-4-yl)amino)piperidin-1-yl)prop-2-en-1-one]"
4,> 100 nM,"CN(C)C/C=C/C(=O)N1CCCC(Nc2nc(Nc3cnn(C)c3)ncc2Cl)C1 (single isomer, unassigned) [II-3 (Enantiomer 1), (E)-1-(3-((5-chloro-2-((1-methyl-1H-pyrazol-4-yl)amino)pyrimidin-4-yl)amino)piperidin-1-yl)-4-(dimethylamino)but-2-en-1-one]"
5,> 100 nM,"CN(C)C/C=C/C(=O)N1CCCC(Nc2nc(Nc3cnn(C)c3)ncc2Cl)C1 (single isomer, unassigned) [II-4 (Enantiomer 2), (E)-1-(3-((5-chloro-2-((1-methyl-1H-pyrazol-4-yl)amino)pyrimidin-4-yl)amino)piperidin-1-yl)-4-(dimethylamino)but-2-en-1-one]"
6,> 100 nM,"C=CC(=O)N1CCCC(Nc2nc(Nc3cnn(C4CCC4)c3)ncc2Cl)C1 (single isomer, unassigned) [II-5 (Enantiomer 1), 1-(3-((5-chloro-2-((1-cyclobutyl-1H-pyrazol-4-yl)amino)pyrimidin-4-yl)amino)piperidin-1-yl)prop-2-en-1-one]"
7,> 100 nM,"C=CC(=O)N1CCCC(Nc2nc(Nc3cnn(C4CCC4)c3)ncc2Cl)C1 (single isomer, unassigned) [II-6 (Enantiomer 2), 1-(3-((5-chloro-2-((1-cyclobutyl-1H-pyrazol-4-yl)amino)pyrimidin-4-yl)amino)piperidin-1-yl)prop-2-en-1-one]"
8,> 100 nM,"C=CC(=O)N1CCC(Oc2nc(Nc3cnn(C)c3)ncc2Cl)C1 (single isomer, unassigned) [II-10 (Enantiomer 1), 1-(3-((5-chloro-2-((1-methyl-1H-pyrazol-4-yl)amino)pyrimidin-4-yl)oxy)pyrrolidin-1-yl)prop-2-en-1-one]"
9,> 100 nM,"C=CC(=O)N1CCC(Oc2nc(Nc3cnn(C)c3)ncc2Cl)C1 (single isomer, unassigned) [II-11 (Enantiomer 2), 1-(3-((5-chloro-2-((1-methyl-1H-pyrazol-4-yl)amino)pyrimidin-4-yl)oxy)pyrrolidin-1-yl)prop-2-en-1-one]"
10,> 100 nM,"C=CC(=O)N1CCCC(Oc2nc(Nc3cnn(C)c3)ncc2Cl)C1 (single isomer, unassigned) [II-12 (Enantiomer 1), 1-(3-((5-chloro-2-((1-methyl-1H-pyrazol-4-yl)amino)pyrimidin-4-yl)oxy)piperidin-1-yl)prop-2-en-1-one]"
11,> 100 nM,"C=CC(=O)N1CCCC(Oc2nc(Nc3cnn(C)c3)ncc2Cl)C1 (single isomer, unassigned) [II-13 (Enantiomer 2), 1-(3-((5-chloro-2-((1-methyl-1H-pyrazol-4-yl)amino)pyrimidin-4-yl)oxy)piperidin-1-yl)prop-2-en-1-one]"

# Second part, the compound before the results:
row,SMILES,IC50
1,"C=CC(=O)Nc1ccc(F)c(Nc2nc(Nc3cn(C)nc3C)ncc2Cl)c1 (single isomer, unassigned) [Compound I-70, N-(3-((5-chloro-2-((1,3-dimethyl-1H-pyrazol-4-yl)amino)pyrimidin-4-yl)amino)-4-fluorophenyl)acrylamide]",< 10 nM
2,"C=CC(=O)Nc1cccc(Nc2nc(Nc3cn(C)nc3C)ncc2Cl)n1 (single isomer, unassigned) [Compound I-73, N-(6-((5-chloro-2-((1,3-dimethyl-1H-pyrazol-4-yl)amino)pyrimidin-4-yl)amino)pyridin-2-yl)acrylamide]",10 to 100 nM
3,"C=CC(=O)Nc1cccc(Nc2nc(Nc3cnn(C)c3C)ncc2Cl)n1 (single isomer, unassigned) [Compound I-74, N-(6-((5-chloro-2-((1,5-dimethyl-1H-pyrazol-4-yl)amino)pyrimidin-4-yl)amino)pyridin-2-yl)acrylamide]",> 100 nM
4,"C=CC(=O)NC1CCCC(Oc2nc(Nc3cnn(C)c3)ncc2Cl)C1 (single isomer, unassigned) [I-88 (Isomer 1), N-(3-((5-chloro-2-((1-methyl-1H-pyrazol-4-yl)amino)pyrimidin-4-yl)oxy)cyclohexyl)acrylamide]",> 100 nM
5,"C=CC(=O)NC1CCCC(Oc2nc(Nc3cnn(C)c3)ncc2Cl)C1 (single isomer, unassigned) [I-89 (Isomer 2), N-(3-((5-chloro-2-((1-methyl-1H-pyrazol-4-yl)amino)pyrimidin-4-yl)oxy)cyclohexyl)acrylamide]",> 100 nM
6,"CN(C)C/C=C/C(=O)NC1CCCC(Oc2nc(Nc3cnn(C)c3)ncc2Cl)C1 (single isomer, unassigned) [I-90 (Isomer 1), (E)-N-(3-((5-chloro-2-((1-methyl-1H-pyrazol-4-yl)amino)pyrimidin-4-yl)oxy)cyclohexyl)-4-(dimethylamino)but-2-enamide]",> 100 nM
7,"CN(C)C/C=C/C(=O)NC1CCCC(Oc2nc(Nc3cnn(C)c3)ncc2Cl)C1 (single isomer, unassigned) [I-91 (Isomer 2), (E)-N-(3-((5-chloro-2-((1-methyl-1H-pyrazol-4-yl)amino)pyrimidin-4-yl)oxy)cyclohexyl)-4-(dimethylamino)but-2-enamide]",> 100 nM
8,"CN(C)C/C=C/C(=O)N[C@@H]1CCC[C@@H](CNc2nc(Nc3cnn(C)c3)ncc2Cl)C1 (single isomer, unassigned) [I-102 (diastereomer 1)]",> 100 nM
9,"CN(C)C/C=C/C(=O)N[C@H]1CCC[C@H](CNc2nc(Nc3cnn(C)c3)ncc2Cl)C1 (single isomer, unassigned) [I-103 (diastereomer 2)]",> 100 nM
10,"C=CC(=O)N[C@H]1CCC[C@@H](Nc2nc(Nc3cnn(C)c3)ncc2Cl)C1 (single isomer, unassigned) [I-104 (Enantiomer 3)]",10 to 100 nM
11,"C=CC(=O)N[C@@H]1CCC[C@H](Nc2nc(Nc3cnn(C)c3)ncc2Cl)C1 (single isomer, unassigned) [I-105 (Enantiomer 4)]",> 100 nM
12,"C=CC(=O)N[C@@H]1CCC[C@@H](Nc2nc(Nc3cnn(C)c3)ncc2Cl)C1 (single isomer, unassigned) [I-106 (Enantiomer 1)]",> 100 nM
13,"C=CC(=O)N[C@H]1CCC[C@H](Nc2nc(Nc3cnn(C)c3)ncc2Cl)C1 (single isomer, unassigned) [I-107 (Enantiomer 2)]",> 100 nM
14,"C=CC(=O)N[C@H]1CCCC[C@@H](Nc2nc(Nc3cnn(C)c3)ncc2Cl)C1 (single isomer, unassigned) [I-112 (Isomer 1)]",> 100 nM
15,"C=CC(=O)N[C@@H]1CCCC[C@H](Nc2nc(Nc3cnn(C)c3)ncc2Cl)C1 (single isomer, unassigned) [I-113 (Isomer 2)]",10 to 100 nM
16,"C=CC(=O)Nc1cccc(Nc2nc(Nc3cnn(C4CCN(C)CC4)c3)ncc2Cl)c1 [Compound I-1, N-(3-((5-chloro-2-((1-(1-methylpiperidin-4-yl)-1H-pyrazol-4-yl)amino)pyrimidin-4-yl)amino)phenyl)acrylamide]",< 10 nM
17,"C=CC(=O)Nc1cccc(Nc2nc(Nc3cn(CCOC)nc3C)ncc2Cl)c1 [Compound I-2, N-(3-((5-chloro-2-((1-(2-methoxyethyl)-3-methyl-1H-pyrazol-4-yl)amino)pyrimidin-4-yl)amino)phenyl)acrylamide]",> 100 nM
